Measured values reported in PubChem BioAssay (NCI).
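Where inhibition never reached the appropriate level, the endpoint shown equals the highest concentration tested. Otherwise, values were interpolated linearly from a five-concentration, 48-hour dose response in 96-well plates. Abbreviation: GI50, concentration required for 50% inhibition of growth. TGI: concentration producing complete growth inhibition.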

Legend:
Assay in all cases: NCI anticancer screen, dose series, 48 h
NCI/ADR-RES ovarian = system: NCI/ADR-RES ovarian
SK-MEL-28 melanoma = system: SK-MEL-28 melanoma
PC-3 prostate = system: PC-3 prostate
SF-295 CNS = system: SF-295 CNS
HS 578T breast = system: HS 578T breast
T-47D breast = system: T-47D breast
M14 melanoma = system: M14 melanoma
SF-268 CNS = system: SF-268 CNS
SNB-19 CNS = system: SNB-19 CNS
DU-145 prostate = system: DU-145 prostate

SMILES	GI50 (NCI/ADR-RES ovarian) [µM]	TGI (NCI/ADR-RES ovarian) [µM]	GI50 (SK-MEL-28 melanoma) [µM]	TGI (SK-MEL-28 melanoma) [µM]	GI50 (PC-3 prostate) [µM]	TGI (PC-3 prostate) [µM]	GI50 (SF-295 CNS) [µM]	TGI (SF-295 CNS) [µM]	GI50 (HS 578T breast) [µM]	TGI (HS 578T breast) [µM]	GI50 (T-47D breast) [µM]	TGI (T-47D breast) [µM]	GI50 (M14 melanoma) [µM]	TGI (M14 melanoma) [µM]	GI50 (SF-268 CNS) [µM]	TGI (SF-268 CNS) [µM]	GI50 (SNB-19 CNS) [µM]	TGI (SNB-19 CNS) [µM]	GI50 (DU-145 prostate) [µM]	TGI (DU-145 prostate) [µM]
Fc1ccc(-c2nnc3sc(-c4cccc(Cl)c4)nn23)cc1Cl	> 100	> 100	> 100	> 100	> 100	> 100	> 100	> 100	> 100	> 100	> 100	> 100	> 100	> 100	> 100	> 100	> 100	> 100	> 100	> 100
Cn1c2ccc([N+](=O)[O-])cc2c(=O)c2c(O)cc(O)cc21	–	55	–	> 100	–	> 100	–	33.8	–	> 100	–	> 100	–	> 100	–	80.2	–	> 100	–	> 100
CNC1NC(=O)c2ccccc2N1Cc1ccc(F)cc1 (stereo not given)	–	> 100	–	> 100	–	> 100	–	> 100	–	> 100	–	> 100	–	> 100	–	> 100	–	> 100	–	> 100
CCOC(=O)C#Cc1ccc(C#CC(=O)OCC)cc1	–	15.3	–	> 20.9	–	> 28.4	–	> 32.1	–	29	–	> 100	–	> 20.7	–	> 22.4	–	> 38.3	–	> 28
CN1CCN(Cc2ccc(NC(=O)c3[nH]ncc3Nc3ncnc4c3CCC4)cc2)CC1	6.17	45.1	2.61	13.1	1.96	12.1	2.24	12	0.705	6.28	3.72	22.7	0.948	13.4	2.14	7.78	2.87	14.8	1.64	10.7
CN(C)CC#Cc1cccc(C(=O)c2cnn(-c3ccc(F)cc3)c2N)c1	> 25	> 25	> 25	> 25	> 25	> 25	> 20.6	> 25	> 19.1	> 25	11.3	> 25	> 25	> 25	> 25	> 25	> 25	> 25	> 25	> 25
CCc1oc2ccccc2c1C(=O)c1cc(Br)c(O)c(Br)c1	–	87.2	–	> 100	–	43.6	–	83.5	–	59	–	53.6	–	80.6	–	84.7	–	> 100	–	> 100
COc1cc(-c2cn(-c3ccc(Cl)cc3)c(=O)[nH]2)cc(OC)c1OC	> 100	> 100	> 100	> 100	> 100	> 100	> 100	> 100	> 100	> 100	> 100	> 100	> 100	> 100	> 100	> 100	> 100	> 100	> 100	> 100
O=C(Nc1ccncc1)C(=O)c1cn(S(=O)(=O)c2ccccc2F)c2ccccc12	0.579	> 100	3.59	49.1	2.35	> 68.5	2.11	10.2	5.27	> 100	2.53	> 87.1	0.979	> 100	2.32	> 79.3	7.17	> 80.4	3.48	18.5
Cc1ccc(NC2=C(Sc3ccc(Cl)cc3)C(=O)N(Cc3ccccc3)C2=O)cc1Cl	10.4	29.7	28.7	> 100	5.47	19.7	5.86	> 100	3.37	18.7	5.32	66.4	3.88	17.5	6.26	93.7	6.03	28.9	3.98	24.6
Nc1ncc(-c2ccc(C(F)(F)F)cc2)c(NC2CCCCCC2)n1	25.3	> 100	53.6	> 100	25.4	> 100	24.1	> 100	25.5	> 100	18.3	> 100	32.9	> 100	48.4	> 100	47.4	> 100	39.9	> 100
CN(/N=N/c1nc(OCc2ccccc2)c2[nH]cnc2n1)C(=O)N(C)/N=N/c1nc(OCc2ccccc2)c2[nH]cnc2n1	47.2	> 100	> 100	> 100	40.5	> 100	32.4	> 100	25.5	85.3	39.6	> 100	71.2	> 100	47.6	> 100	> 100	> 100	38.9	> 100
O=C(O)c1ccc(NS(=O)(=O)c2cccc3cccnc23)cc1	> 100	> 100	> 100	> 100	> 100	> 100	> 100	> 100	> 100	> 100	> 100	> 100	> 100	> 100	> 100	> 100	> 100	> 100	> 100	> 100
O=C(CNC(=O)c1cccc2ccccc12)Nc1ccccc1Oc1ccccc1	0.239	> 10	0.813	> 10	0.304	> 10	0.25	> 10	0.363	> 10	0.542	> 10	0.278	> 10	0.435	> 10	0.461	> 10	0.325	> 10
